Assays:
[1] = biological target: T1, BRDT(2) (Homo sapiens, UniProt Q58F21); assay: Bromodomain assay % Ctrl determination BRDT(2); conditions: lower numbers indicate a stronger binding
T1 construct: T7 phage strains displaying bromodomains were grown; host or cells: T7 phage in E. coli derived from BL21
Protocol: (§1) Compounds that bind the bromodomain prevent its binding to the immobilized ligand thus reducing the amount of protein captured. […] Hits are identified by measuring the amount of bromodomain captured in test versus control samples. Bromodomain assays for % Ctrl determination: T7 phage strains displaying bromodomains were grown in parallel in 24-well blocks in an E. coli host derived from the BL21 strain. E. coli were grown to log-phase and infected with T7 phage from a frozen stock (multiplicity of infection=0.4) and incubated with shaking at 32° C. until lysis (90-150 minutes). The lysates were centrifuged (5,000×g) and filtered (0.2 μm) to remove cell debris. […] The liganded beads were blocked with excess biotin and washed with blocking buffer (SeaBlock (Pierce), 1% BSA, 0.05% Tween 20, 1 mM DTT) to remove unbound ligand and to reduce non-specific phage binding. […] Test compounds were prepared as 1000× stocks in 100% DMSO and subsequently diluted 1:25 in monoethylene glycol (MEG). The compounds were then diluted directly into the assays such that the final concentrations of DMSO and MEG were 0.1% and 2.4%, respectively. All reactions were performed in polypropylene 384-well plates in a final volume of 0.02 ml. […] The bromodomain concentration in the eluates was measured by qPCR. […]

[2] = biological target: T2, BRPF1 (Homo sapiens, UniProt P55201); assay: Bromodomain assay % Ctrl determination BRPF1; conditions: lower numbers indicate a stronger binding
T2 construct: T7 phage strains displaying bromodomains were grown; host or cells: T7 phage in E. coli derived from BL21
T2 sequence (P55201 628-732 limits assumed): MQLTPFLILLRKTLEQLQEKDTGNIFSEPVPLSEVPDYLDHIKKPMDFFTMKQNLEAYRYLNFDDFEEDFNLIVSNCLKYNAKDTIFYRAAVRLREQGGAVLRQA
Protocol: as §1

[3] = biological target: T3, BRD2(1) (Homo sapiens, UniProt P25440); assay: Bromodomain assay % Ctrl determination BRD2(1); conditions: lower numbers indicate a stronger binding
T3 construct: T7 phage strains displaying bromodomains were grown in parallel; made in house; host or cells: T7 phage grown in an E. coli host derived from the BL21 strain
T3 sequence (P25440 74-180 limits assumed): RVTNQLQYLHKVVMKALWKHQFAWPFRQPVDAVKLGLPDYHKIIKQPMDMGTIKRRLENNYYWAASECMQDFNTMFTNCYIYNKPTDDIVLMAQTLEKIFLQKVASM
Protocol: as §1

[4] = biological target: T4, BAZ2A (Homo sapiens, UniProt Q9UIF9); assay: Bromodomain assay % Ctrl determination BAZ2A; conditions: lower numbers indicate a stronger binding
T4 construct: T7 phage strains displaying bromodomains were grown in parallel; made in house; host or cells: T7 phage grown in an E. coli host derived from the BL21 strain
T4 sequence (Q9UIF9 1793-1897 limits assumed): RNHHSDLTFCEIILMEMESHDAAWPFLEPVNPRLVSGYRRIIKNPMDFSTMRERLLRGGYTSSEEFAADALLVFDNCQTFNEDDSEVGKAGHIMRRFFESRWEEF
Protocol: as §1

[5] = biological target: T5, BRD2(2) (Homo sapiens, UniProt P25440); assay: Bromodomain assay % Ctrl determination BRD2(2); conditions: lower numbers indicate a stronger binding
T5 construct: T7 phage strains displaying bromodomains were grown in parallel; made in house; host or cells: T7 phage grown in an E. coli host derived from the BL21 strain
T5 sequence (P25440 344-453 limits assumed): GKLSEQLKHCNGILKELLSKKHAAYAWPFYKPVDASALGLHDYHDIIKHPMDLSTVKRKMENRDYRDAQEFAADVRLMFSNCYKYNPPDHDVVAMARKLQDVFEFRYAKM
Protocol: as §1

[6] = biological target: T6, BRD4(1) (Homo sapiens, UniProt O60885); assay: Bromodomain assay % Ctrl determination BRD4(1); conditions: lower numbers indicate a stronger binding
T6 construct: BRD4-BD1 was expressed and purified as described previously; made in house
Protocol: as §1

[7] = biological target: T7, TRIM24(PHD, Bromo) (Homo sapiens, UniProt O15164); assay: Bromodomain assay % Ctrl determination TRIM24(PHD, Bromo); conditions: lower numbers indicate a stronger binding
T7 construct: T7 phage strains displaying bromodomains were grown in parallel; host or cells: T7 phage grown in E. coli host derived from BL21
T7 sequence (O15164 824-1006 limits assumed): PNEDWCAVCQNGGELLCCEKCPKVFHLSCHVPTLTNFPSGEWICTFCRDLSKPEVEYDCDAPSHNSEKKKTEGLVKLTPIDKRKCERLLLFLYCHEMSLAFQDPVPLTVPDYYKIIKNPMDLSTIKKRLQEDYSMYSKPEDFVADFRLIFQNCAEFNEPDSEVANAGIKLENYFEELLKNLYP
Protocol: as §1

[8] = biological target: T8, SMARCA2 (Homo sapiens, UniProt P51531); assay: Bromodomain assay % Ctrl determination SMARCA2; conditions: lower numbers indicate a stronger binding
T8 construct: T7 phage strains displaying bromodomains were grown in parallel; host or cells: T7 phage grown in E. coli host derived from BL21
T8 sequence (P51531 1378-1506 limits assumed): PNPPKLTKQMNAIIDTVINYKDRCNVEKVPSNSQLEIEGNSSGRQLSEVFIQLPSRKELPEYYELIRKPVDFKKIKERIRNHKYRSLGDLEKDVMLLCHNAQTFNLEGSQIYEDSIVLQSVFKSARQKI
Protocol: as §1

[9] = biological target: T9, TAF1L(2) (Homo sapiens, UniProt Q8IZX4); assay: Bromodomain assay % Ctrl determination TAF1L(2); conditions: lower numbers indicate a stronger binding
T9 construct: FALZ, PBRM1-BD2, BPRM1-BDS, TAF1-BD2, TAF1L-BD2; host or cells: T7 phage grown in E. coli host derived from BL21
T9 sequence (Q8IZX4 1517-1626 limits assumed): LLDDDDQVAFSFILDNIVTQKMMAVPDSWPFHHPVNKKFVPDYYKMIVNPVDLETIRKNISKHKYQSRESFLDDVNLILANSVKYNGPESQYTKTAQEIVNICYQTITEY
Protocol: as §1

[10] = biological target: T10, BRDT(1, 2) (Homo sapiens, UniProt Q58F21); assay: BROMOscan Kd determination BRDT(1, 2); type: binding
T10 construct: T7 phage strains displaying bromodomains were grown; host or cells: T7 phage in E. coli derived from BL21
Protocol: (§2) Bromodomain profiling was carried out on the basis of BROMOscan™. This platform accounted for the indirect determination of the dissociation constants between 19 bromodomains and the compound of formula (13), by binding competition against a reference immobilized ligand. Compounds that bind the bromodomain prevent its binding to the immobilized ligand thus reducing the amount of protein captured. […] Hits are identified by measuring the amount of bromodomain captured in test versus control samples. Bromodomain assays for Kd determination: T7 phage strains displaying bromodomains were grown in parallel in 24-well blocks in an E. coli host derived from the BL21 strain. E. coli were grown to log-phase and infected with T7 phage from a frozen stock (multiplicity of infection=0.4) and incubated with shaking at 32° C. until lysis (90-150 minutes). The lysates were centrifuged (5,000×g) and filtered (0.2 μm) to remove cell debris. […] Kds were determined using an 11-point 3-fold compound dilution series with one DMSO control point. […] The bromodomain concentration in the eluates was measured by qPCR. […] Most Kds were determined using a compound top concentration=10,000 nM. […] Binding Constants (Kds): Binding constants (Kds) were calculated with a standard dose-response curve using the Hill equation: The Hill Slope was set to −1. […]

[11] = biological target: T11, CREBBP (Homo sapiens, UniProt Q92793); assay: BROMOscan Kd determination CREBBP; type: binding
T11 construct: T7 phage strains displaying bromodomains were grown; host or cells: T7 phage in E. coli derived from BL21
T11 sequence (Q92793 1085-1192 limits assumed): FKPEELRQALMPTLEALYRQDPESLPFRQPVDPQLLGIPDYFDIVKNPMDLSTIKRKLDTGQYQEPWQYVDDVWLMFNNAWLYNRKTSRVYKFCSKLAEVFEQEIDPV
Protocol: as §2

[12] = biological target: T12, BAZ2B (Homo sapiens, UniProt Q9UIF8); assay: BROMOscan Kd determination BAZ2B; type: binding
T12 construct: T7 phage strains displaying bromodomains were grown in parallel; made in house; host or cells: T7 phage grown in an E. coli host derived from the BL21 strain
T12 sequence (Q9UIF8 2060-2164 limits assumed): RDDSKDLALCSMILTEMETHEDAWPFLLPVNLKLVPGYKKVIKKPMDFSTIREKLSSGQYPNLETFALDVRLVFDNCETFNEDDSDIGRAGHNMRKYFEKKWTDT
Protocol: as §2

[13] = biological target: T13, EP300 (Homo sapiens, UniProt Q09472); assay: BROMOscan Kd determination EP300; type: binding
T13 construct: T7 phage strains displaying bromodomains were grown; host or cells: T7 phage in E. coli derived from BL21
T13 sequence (Q09472 1049-1156 limits assumed): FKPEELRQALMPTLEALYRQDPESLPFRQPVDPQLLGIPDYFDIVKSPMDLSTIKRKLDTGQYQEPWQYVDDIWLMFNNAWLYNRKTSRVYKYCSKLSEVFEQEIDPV
Protocol: Bromodomain profiling was carried out on the basis of BROMOscan™. This platform accounted for the indirect determination of the dissociation constants between 19 bromodomains and the compound of formula (13), by binding competition against a reference immobilized ligand. Compounds that bind the bromodomain prevent its binding to the immobilized ligand thus reducing the amount of protein captured. […] Hits are identified by measuring the amount of bromodomain captured in test versus control samples. Bromodomain assays for Kd determination: T7 phage strains displaying bromodomains were grown in parallel in 24-well blocks in an E. coli host derived from the BL21 strain. E. coli were grown to log-phase and infected with T7 phage from a frozen stock (multiplicity of infection=0.4) and incubated with shaking at 32° C. until lysis (90-150 minutes). The lysates were centrifuged (5,000×g) and filtered (0.2 μm) to remove cell debris. […] The liganded beads were blocked with excess biotin and washed with blocking buffer (SeaBlock (Pierce), 1% BSA, 0.05% Tween 20, 1 mM DTT) to remove unbound ligand and to reduce non-specific phage binding. […] Test compounds were prepared as 1000× stocks in 100% DMSO. Kds were determined using an 11-point 3-fold compound dilution series with one DMSO control point. All compounds for Kd measurements are distributed by acoustic transfer (non-contact dispensing) in 100% DMSO. The compounds were then diluted directly into the assays such that the final concentration of DMSO was 0.09%. All reactions performed in polypropylene 384-well plates. Each was a final volume of 0.02 ml. […] The bromodomain concentration in the eluates was measured by qPCR. […] All compounds for Kd measurements are distributed by acoustic transfer (non-contact dispensing) in 100% DMSO. The compounds were then diluted directly into the assays such that the final concentration of DMSO was 0.09%. Most Kds were determined using a compound top concentration=10,000 nM. If the initial Kd determined was <0.169 nM (the lowest concentration tested), the measurement was repeated with a serial dilution starting at a lower top concentration. Binding Constants (Kds): Binding constants (Kds) were calculated with a standard dose-response curve using the Hill equation: The Hill Slope was set to −1. Curves were fitted using a non-linear least square fit with the Levenberg-Marquardt algorithm.

[14] = biological target: T14, FALZ (Homo sapiens, UniProt Q12830); assay: BROMOscan Kd determination FALZ; type: binding
T14 construct: T7 phage strains displaying bromodomains were grown in parallel; host or cells: T7 phage grown in E. coli host derived from BL21
Protocol: as §2

[15] = biological target: T15, GCN5L2 (Homo sapiens, UniProt Q92830); assay: BROMOscan Kd determination GCN5L2; type: binding
T15 construct: T7 phage strains displaying bromodomains were grown in parallel; host or cells: T7 phage grown in E. coli host derived from BL21
T15 sequence (Q92830 728-832 limits assumed): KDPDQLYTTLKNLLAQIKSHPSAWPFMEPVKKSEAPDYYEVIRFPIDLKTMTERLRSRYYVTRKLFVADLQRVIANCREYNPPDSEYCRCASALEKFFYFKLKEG
Protocol: as §2

SMILES	% Ctrl @ 10 000 nM BRDT(2) [1] [% Ctrl]	% Ctrl @ 10 000 nM BRPF1 [2] [% Ctrl]	% Ctrl @ 10 000 nM BRD2(1) [3] [% Ctrl]	% Ctrl @ 10 000 nM BAZ2A [4] [% Ctrl]	% Ctrl @ 10 000 nM BRD2(2) [5] [% Ctrl]	% Ctrl @ 10 000 nM BRD4(1) [6] [% Ctrl]	% Ctrl @ 10 000 nM TRIM24(PHD, Bromo) [7] [% Ctrl]	% Ctrl @ 10 000 nM SMARCA2 [8] [% Ctrl]	% Ctrl @ 10 000 nM TAF1L(2) [9] [% Ctrl]	Kd [10] [nM]	Kd [11] [nM]	Kd [12] [nM]	Kd [13] [nM]	Kd [14] [nM]	Kd [15] [nM]
COc1ccc(S(=O)(=O)N2CCOCC2)cc1NC(=O)c1[nH]c(C)c2c1CCCCC2=O [Compound 13, N-(2-methoxy-5-(morpholinosulfonyl)phenyl)-3-methyl-4-oxo-2,4,5,6,7,8-hexahydrocyclohepta[c]pyrrole-1-carboxamide]	0.65	0.15	0	24	0.1	0	82	83	40						
Cc1[nH]c(-c2cc(N)ccc2Cl)c2c1C(=O)CCCC2 [Compound 23]										420	420	1800	1200	2600	> 10000

Source: patent US20220055989A1, “CONDENSED PYRROLES AS NOVEL BROMODOMAIN INHIBITORS” (ALBERT LUDWING UNIVERSITÄT FREIBURG, priority 2018, published 2022)
